Common to all, as to type: in vivo
For experiment [1], the system named is 2nd-instar larvae of Chilo suppressalis (Walker). As to the kind of experiment: Joint toxicity of I-72 + abamectin, rice stalk spraying, Example 7, Table 7. As to conditions: Chilo suppressalis, resistant 2nd-instar larvae, 72 h, A = compound I-72, B = abamectin, read-out: LC50. The method, then:
Test target: 2nd-instar larvae of Chilo suppressalis (Walker). The insect source was collected from Nanchang, Jiangxi Province, and it is the 11th generation continuously cultured indoors, with a relatively high resistance level to amide pesticides such as chlorantraniliprole.
Test conditions: temperature: 25-27° C., humidity: RH 60%, and illumination: L:D=14:10
Preparation method: the test pesticides were accurately weighed respectively with an electronic analytical balance. After the two technical materials were respectively added into an appropriate amount of solvent and completely dissolved, the stock solution of the required concentration was prepared with water containing 0.1% Tween 80. The stock solutions of the two active ingredients were mixed in a certain ratio to prepare a mixed solution, which was then diluted respectively into a series of pesticide solutions with a certain concentration gradient according to the experimental design dosage.
Experimental method: the spraying method was adopted. […] The corrected mortality rate was calculated using the Abbott's formula, and the DPS data processing software was used for statistical analysis to calculate the toxicities (LC50 values) of the single test pesticides and the mixtures under the test ratios. […]

Experiment [2] has as its system Aphis gossypii Glover nymphs. Description: Joint toxicity of I-72 + organophosphorus insecticides, cotton leaf spraying, Example 17, Table 17. As to conditions: nymphs, cotton leaf spraying, 48 h, A = compound I-72, B = diazinon, read-out: LC50. The protocol:
Test target: Aphis gossypii Glover nymphs, a sensitive strain reared indoors.
(§1) Preparation of the pesticide solution: according to different test requirements, the test samples were accurately weighed respectively with an electronic analytical balance. The technical pesticides were dissolved in acetone, and then diluted with 0.1% Tween 80 water into a series of pesticide solutions with a certain concentration gradient according to the experimental design dosage.
Experimental method: first, cotton leaves with uniform and consistent Aphis gossypii were selected, with about 20 insects on each leaf. Then, they were evenly sprayed with the pesticide solution in the order from low dosage to high dosage according to the experimental design, with 1.5 mL for each leaf and 3 replicates for each treatment. In addition, a blank control was set up.
The treated test materials were placed in an observation room, and the temperature, humidity and illumination of the observation room could be adjusted as needed. The number of dead and live insects was investigated 48 hours later. The corrected mortality rate was calculated using the Abbott's formula, and statistical analysis was performed with the DPS data processing software to obtain the toxicity regression equation, LC50 value and 95% confidence limit of each single test pesticide and each mixture of different ratios. Then, the co-toxicity coefficient of each ratio was calculated using the Sun Y-P method to evaluate the mixing effect (the same as in Example 1).

Experiment [3] relates to adult Phyllotreta vittuta Fabr. As to the kind of experiment: Joint toxicity of I-72 + deltamethrin, Example 45, Table 45. As to conditions: A = compound I-72, B = deltamethrin; potted cabbage seedling spraying; 72 hours; read-out: LC50. The protocol:
Test target: adult Phyllotreta vittuta Fabr.
as §1
Experimental method: first, uniform and consistent potted cabbage seedlings were selected. Then, uniform spraying was performed with the pesticide solution in the order from low dosage to high dosage according to the experimental design. After air-drying in the shade, adult flea beetles were transferred onto the treated cabbage seedlings, and then glass covers were put on them, with about 30-40 adult flea beetles on each seedling and 3 replicates for each treatment. In addition, a blank control was set up.
The treated test materials were placed in an observation room, and the temperature, humidity and illumination of the observation room could be adjusted as needed. The number of dead and live insects was investigated 72 hours later. […] Then, the co-toxicity coefficient of each ratio was calculated using the Sun Y-P method to evaluate the mixing effect (the same as in Example 1).

For experiment [4], the system named is Aphis citricola van der Goot nymphs. Description: Joint toxicity of I-72 + nicotine, Example 72, Table 72. As to conditions: A = compound I-72, B = nicotine, apple leaf spraying, 48 hours. The method, then: Test target: Aphis citricola van der Goot nymphs.
as §1
Experimental method: first, apple leaves with uniform and consistent Aphis citricola van der Goot were selected, with about 30-40 insects on each leaf. Then, they were evenly sprayed with the pesticide solution in the order from low dosage to high dosage according to the experimental design, with 1.5 mL for each leaf and 3 replicates for each treatment. In addition, a blank control was set up.
The treated test materials were placed in an observation room, and the temperature, humidity and illumination of the observation room could be adjusted as needed. The number of dead and live insects was investigated 48 hours later. […] Then, the co-toxicity coefficient of each ratio was calculated using the Sun Y-P method to evaluate the mixing effect (the same as in Example 1).

Experiment [5] relates to Unaspis yanonensis Kuwana nymphs. Description: Joint toxicity of I-72 + afidopyropen, Example 76, Table 76. As to conditions: Unaspis yanonensis, foliar; A = compound I-72, B = afidopyropen; citrus leaf dipping; 120 hours; read-out: LC50. The protocol: Test target: Unaspis yanonensis Kuwana nymphs.
as §1
Experimental method: the activity of the mixture against Unaspis yanonensis Kuwana nymphs on citrus was determined by adopting the dipping method. First, the collected citrus leaves with Unaspis yanonensis Kuwana nymphs were treated with the pesticide solution in the order from low dosage to high dosage according to the experimental design. After air-drying, the petioles were kept moist with degreased cotton, and then the leaves were placed in a Petri dish, with 3 replicates for each treatment. In addition, a blank control was set up.
The treated test materials were placed in an observation room, and the temperature, humidity and illumination of the observation room could be adjusted as needed. The number of dead and live insects was investigated 120 hours later. […] Then, the co-toxicity coefficient of each ratio was calculated using the Sun Y-P method to evaluate the mixing effect (the same as in Example 1).

A further experiment has as its system Cnaphalocrocis medinalis. Description: Field efficacy trial of I-72 and Bacillus thuringiensis on rice, Example 86, Table 86. The note with it: 20 days after application. The method, then:
This trial was arranged in the suburban area of Jurong City, Jiangsu Province. The conventional spraying method was adopted in the trial. The investigation method was to take samples at 5 points, and a total of 25 clusters of rice were investigated. The investigation was performed 20 days after the pesticide application. By comparing with the leaf rolling rate in the control plot, the relative control efficacy was calculated. The amount of water used per mu was 45 L.
The test pesticides were as follows: A: 8000 IU/μL Bacillus thuringiensis suspension (produced by Qingdao Audis Biotechnology Co., Ltd. of Shandong), and B: compound I-72 (dissolved in acetone, 0.1% Tween 80 was added, and a 10% stock solution was prepared for use).
[formula] [formula] • in the formula, CK is the leaf rolling rate in the blank control plot after the pesticide application

One may read the LC50 as the concentration that kills 50% of the test population. For `CN(C(=O)c1ccc2c(c1)OC(F)(F)O2)c1cccc(C(=O)Nc2c(Br)cc(C(F)(C(F)(F)F)C(F)(F)F)cc2OC(F)F)c1F` [Compound I-72], the LC50 was found to be 0.811 µg/mL in experiment [1]; 2.83 µg/mL in experiment [2]; 1.24 µg/mL in experiment [3]; 3.06 µg/mL in experiment [4]; 75.4 µg/mL in experiment [5]. In addition, the Control efficacy with Cnaphalocrocis medinalis (dose 9 ml per mu) is recorded as 79.6%; in the experiment with Cnaphalocrocis medinalis (dose 11.25 ml per mu), 85.0%; in the experiment with Cnaphalocrocis medinalis (dose 13.5 ml per mu) it was 86.8%. Moreover, the Leaf rolling rate in the experiment with Cnaphalocrocis medinalis (dose 9 ml per mu) was 8.6%; in the experiment on Cnaphalocrocis medinalis (dose 11.25 ml per mu), 6.3%; in the experiment with Cnaphalocrocis medinalis (dose 13.5 ml per mu) it was 5.6%.

For the origin of these results see patent US20260198495A1, “BINARY INSECTICIDE COMPOSITION AND USE THEREOF” (SHENYANG SINOCHEM AGROCHEMICALS R & D CO., LTD., priority 2022, published 2026).
